Experimental data taken from PMC9828254, “Identification of Dihydroorotate Dehydrogenase Inhibitors Using the Cell Painting Assay” (Chembiochem, 2022).
“Also recorded” adds a separate entry of the source. Blank lines part the entries; values can stand above or below the compound they belong to.

Columns and labels:
[1] = tested on: U2OS cells; assay: Cell Painting assay (CPA), morphological fingerprints; type: cell-based, human; settings: for biosimilarity (BioSim) to brequinar / biosimilarity (BioSim) to IPP/CNRS-A017: concentration not given, similar if biosimilarity >75 %; for BioSim [%] (biosimilarity) to IPP/CNRS-A017: reference fingerprint IPP/CNRS-A017 5 μM; for BioSim [%] (biosimilarity) to brequinar: reference fingerprint brequinar 10 μM
Description: Therefore, the definition of bioactivity clusters is crucial for proper hypothesis generation for uncharacterized small molecules that are subjected to the CPA and requires thorough inspection of the CPA fingerprints of reference compounds.[[2b], [9], [10]] […] For the CPA, human osteosarcoma U2OS cells were treated with compounds for 20 h prior to detection of cellular components and compartments (DNA, RNA, mitochondria, Golgi, endoplasmic reticulum (ER), actin, plasma membrane) using six different dyes. Morphological features are extracted and differences to the control (cells that were treated with DMSO) are expressed as Z scores. The CPA fingerprints used in this study compile Z scores for 579 features. […] Myxothiazol is an inhibitor of complex III of the mitochondrial electron transport chain.[15] Whereas de novo biosynthesis of pyrimidines takes place in the cytosol, DHODH is the only enzyme of the pyrimidine biosynthesis pathway that is localized at the inner mitochondrial membrane.[16] DHODH catalyzes the oxidation of dihydroorotate (DHO) to orotate by transferring electrons from DHO via the cofactor FMN to ubiquinone to yield ubiquinol. Electrons from ubiquinol are transferred further to complex III (cytochrome b,c1 complex), thereby recycling […] that is required for DHODH activity. In this way, pyrimidine biosynthesis is tightly coupled to the activity of complex III, which ensures that pyrimidine nucleotides and, thus, DNA and RNA are synthesized only if cells are supplied with sufficient amount of ATP via the mitochondrial respiratory chain. Alternatively, cells can replenish their pyrimidine pools via the salvage pathway by uptake of circulating pyrimidines.[5] Whereas proliferating cells rely on de novo pyrimidine biosynthesis to meet the high demand for nucleotides, the salvage pathway is used by resting and fully differentiated cells.[5]
The cell painting assay: The Cell Painting assay[25] was performed as described previously.[[9a], [26]] U2OS medium (5 μL) was added to each well of a 384‐well plate (PerkinElmer CellCarrier‐384 Ultra) prior to addition of 1,600 U2OS cells per well and incubation for 4 h at 37 °C. Standard stock concentration of compounds was 10 mM. […] Compounds were added to the cells using the Echo 520 acoustic dispenser (Labcyte) followed by incubation for 20 h at 37 °C. Subsequently, mitochondria were stained with 0.1 μg/μL Mito Tracker Deep Red for 30 min at 37 °C in the dark. Cells were fixed using 3.7 % formaldehyde (in PBS) for 20 min at 37 °C in the dark. Cells were washed three times using PBS before permeabilization using Triton X‐100 for 15 min 37 °C in the dark. After three additional washing steps, 25 μL of a staining solution were added to each well, which contained 1 % BSA, 5 μL/mL Phalloidin (Alexa594 conjugate, Thermo Fisher Scientific, A12381), 25 μg/mL Concanavalin A (Alexa488 conjugate, Thermo Fisher Scientific, Cat. No. C11252), 5 μg/mL Hoechst 33342 (Sigma, Cat. No. B2261‐25 mg), 1.5 μg/mL WGA‐Alexa594 conjugate (Thermo Fisher Scientific, Cat. No. W11262) and 1.5 μM SYTO 14 solution (Thermo Fisher Scientific, Cat. No. S7576). Plates were incubated for 30 min at 37 °C in the dark and washed three times with PBS. Plates were sealed and centrifuged for 1 min at 500 rpm. The plates were prepared in triplicates with shifted layouts to reduce plate effects and imaged using a Micro XL High‐Content Screening System (Molecular Devices) in 5 channels (DAPI: Ex350‐400/Em410‐480; FITC: Ex470‐500/Em510‐540; Spectrum Gold: Ex520‐545/Em560‐585; TxRed: Ex535‐585/Em600‐650; Cy5: Ex605‐650/Em670‐715) with 9 sites per well and 20× magnification (binning 2).
Generated images were processed with the CellProfiler package[27] (https://cellprofiler.org, version 3.0.0) on a computing cluster of the Max Planck Society to extract 1716 cell features. The data was then further aggregated as medians per well (9 sites→1 well), then over the three replicates.

[2] = tested on: HCT116 cells; assay: DHODH rescue assay / cell growth (cell confluence, IncuCyte); type: cell-based; settings: for rescue of cell growth by uridine: 100 μM uridine, 96 h; for rescue of cell growth by orotate (OA): 1.5 mM OA; for influence on cell growth (cell confluence): monitored over 96 h
Description: Figure 3 Influence of compounds on cell growth and DHODH activity. (A–C) HCT116 cells were treated with the compounds or DMSO as a control in presence or absence of 100 μM uridine. Cell confluence as a measure of cell growth was monitored over 96 h using IncuCyte ZOOM/S3. (A) Brequinar (BRQ). (B) Myxothiazol (MXT). […] (D–E) In vitro DHODH activity. […] (F) Influence of compound 7 on complex III activity. All data are mean values of three biological replicates (n=3)±SD.
(§1) DHODH rescue assay: 2,000 HCT116 or U2OS cells per well were seeded in a clear 96‐well plate and incubated as described above overnight prior to treatment. The next day, the medium was replaced by fresh compound or DMSO containing medium supplemented with control solvent or uridine (100 μM), OA (1.5 mM) or DHO (1.5 mM). Cell growth was monitored every 2 h for a total of 96 h after treatment start using an IncuCyte S3 (Essen BioScience). The cell confluence was quantified as a measure of cell growth using the IncuCyte S3 software (Essen BioScience).

[3] = tested on: U2OS cells; settings: 100 μM uridine
Description: as §1

[4] = target: T1, Human DHODH (Homo sapiens, UniProt Q02127); assay: DHODH enzymatic assay (DCPIP reduction); type: biochemical; settings: for inhibition at 10 µM: 30 min preincubation, read-out: reduction (inhibition) of in vitro DHODH activity
T1 construct: 40 μL of purified DHODH (aa31–395, final concentration: 1.25 μg/mL); made in house; host or cells: E. coli BL21 (DE3)
T1 sequence (Q02127 31-395): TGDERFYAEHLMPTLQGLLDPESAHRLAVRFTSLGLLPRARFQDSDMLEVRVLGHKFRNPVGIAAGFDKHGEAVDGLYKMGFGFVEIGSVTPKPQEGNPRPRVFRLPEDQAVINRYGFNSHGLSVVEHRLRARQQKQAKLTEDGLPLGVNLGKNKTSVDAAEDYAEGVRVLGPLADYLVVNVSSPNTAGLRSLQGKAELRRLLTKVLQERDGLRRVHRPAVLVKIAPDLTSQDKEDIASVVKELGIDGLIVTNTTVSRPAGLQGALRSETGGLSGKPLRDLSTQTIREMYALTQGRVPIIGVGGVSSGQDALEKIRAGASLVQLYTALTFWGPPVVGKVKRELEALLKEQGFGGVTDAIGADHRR
Description: Expression was induced by adding 0.8 mM IPTG (AppliChem, A1008,0025) and temperature was reduced to 28 °C for 6 hours. […] The clarified supernatant was loaded to the column and washed with PBS (1 mL/min) for 2 h, followed by elution with 10 mM L‐glutathione (Sigma Aldrich, G4251) in PBS. The GST tag was not removed for further analysis. Factions containing hDHODH‐GST protein were pooled, concentrated with centrifugal filters (Ultra‐50 K, Merck Millipore, UFC905096) and shock‐frozen for further analysis. Protein concentration was determined by Bradford measurement.
DHODH enzymatic assay: Enzymatic activity of DHODH was assessed by monitoring the reduction of 2,6‐dichlorophenolinindophenol (DCPIP), which is coupled to the oxidation of dihydroorotate by DHODH. […] The reaction was initiated by adding 50 μL mastermix (2 mM L‐dihydroorotic acid, 0.2 mM decylubiquonone, 0.12 mM 2,6 dichlorphenolindophenol (DCPIP) in assay buffer). DCPIP reduction was monitored at λ=600 nm using Tecan Spark plate reader for 20 min.

[5] = tested on: U2OS cells; parameters: method as in earlier work; settings: ref 9b; cited from earlier work
[6] = target: T2, complex III (Bos taurus, UniProt P00157); assay: MitoTox complex II+III OXPHOS activity assay kit; type: biochemical; settings: bovine heart mitochondria; Figure 3F
T2 construct: tissue Abcam ab109905; host or cells: bovine heart mitochondria
Description: MitoTox™ complex II+III OXPHOS activity assay kit: The assay was performed using the MitoTox™ Complex II+III OXPHOS Activity Assay Kit (ab109905, Abcam) according to the manufacturer's instructions. Compounds or DMSO as a control was mixed with succinate solution (electron donor) and oxidized cytochrome c (electron acceptor) in the presence of complex IV inhibitor […] (2 mM, 60168, Sigma Aldrich) and complex I inhibitor Rotenone (12 μM, R8875, Sigma Aldrich). To start the electron transfer reaction, bovine heart mitochondria (0.03 mg/mL) were added to the mixture and conversion of oxidized cytochrome c into the reduced form was monitored for 5 min at 550 nm using the Tecan Spark plate reader.

[7] = Conc 10 μM, 20 h, percentage of significantly altered features
[8] = Homo sapiens, U2OS, Conc 10 μM, 20 h, read-out: Cell count [%]
[9] = 96 h, 2, 6, 7 at 10 μM, 4 at 30 μM
[10] = complex III inhibitors, Figure S8, concentration not given

SMILES: Cc1c(-c2ccc(-c3ccccc3F)cc2)nc2ccc(F)cc2c1C(=O)O [Brequinar, brequinar]
Ind [%] (induction) [1, 7]: 36%
viability at 10 µM [1, 8]: 89%
biosimilarity to the fingerprint of methotrexate ([1]; full fingerprints, Figure S3A and S3B): lack of biosimilarity
BioSim [%] (biosimilarity) to myxothiazol ([1]; reference fingerprint myxothiazol 10 μM, compound Conc 10 μM): 84%
rescue of cell growth by uridine [2]: completely rescue; also recorded: full cell growth recovery
rescue of cell growth by dihydroorotate (DHO) ([2]; 1.5 mM DHO, 96 h, 2, 6, 7 at 10 μM, 4 at 30 μM): could not restore
rescue of cell growth by orotate (OA) [2, 9]: rescued normal cell proliferation
rescue of cell growth by uridine [3]: completely rescue

inhibition at 10 µM ([4]; 10 μM compound): > 50%
SMILES: COc1ccc2[nH]c3c(c2c1)CCO[C@]31CC[C@@]2(Oc3c(Cl)c(OC)cc(OC)c3C2=O)[C@H](C)C1 [Compound 3]
viability at 3 µM ([1]; Homo sapiens, U2OS, Conc 3 μM, 20 h, read-out: Cell count [%]): 94%

influence on in vitro DHODH activity, in words ([4]; 10 μM compound): only moderately inhibited
inhibition at 10 µM ([4]; 10 μM compound): 27 to 44%
SMILES: CN1C(=O)[C@@]2(C(=O)N(Cc3ccncc3)c3ccc(OC(F)(F)F)cc32)c2ccccc21 [Compound 2]
viability at 10 µM [1, 8]: 90%
rescue of cell growth by orotate (OA) [2, 9]: relieved

influence on in vitro DHODH activity, in words ([4]; 10 μM compound): only moderately inhibited
inhibition at 10 µM ([4]; 10 μM compound): 27 to 44%
SMILES: COc1cc(OC)c2c(c1Cl)O[C@@]1(CC[C@@]3(C[C@H]1C)OCCc1c3[nH]c3ccc(C)cc13)C2=O [Compound 4]
viability at 10 µM [1, 8]: 81%
rescue of cell growth by orotate (OA) [2, 9]: relieved

SMILES: CO/C(=C/C(N)=O)[C@H](C)[C@H](/C=C/c1csc(-c2csc([C@@H](C)/C=C/C=C/C(C)C)n2)n1)OC [Myxothiazol, myxothiazol]
Cell count [%] ([1]; Conc 10 μM, 20 h): 73%
Ind [%] (induction) [1, 7]: 46%
biosimilarity (BioSim) to brequinar [1]: biosimilar
rescue of cell growth by uridine [2]: only partly restored normal cell growth
influence on cell growth (cell confluence) [2]: suppressed the growth
influence on cell growth (cell confluence) ([2]; listed as myxothiazol): growth arrest
influence on in vitro DHODH activity, in words [4, 10]: do not inhibit

SMILES: CCCCCC[C@H]1C(=O)O[C@H](C)[C@H](NC(=O)c2cccc(NC=O)c2O)C(=O)O[C@@H](C)[C@@H]1OC(=O)CC(C)C [antimycin A]
biosimilarity (BioSim) to brequinar [1]: biosimilar
influence on cell growth (cell confluence) [2]: growth arrest
influence on in vitro DHODH activity, in words [4, 10]: do not inhibit

inhibition at 10 µM ([4]; 10 μM compound): > 50%
IC50 ([4]; dose-response, n=3 ± SD, read-out: IC50 for inhibition of DHODH): 6.2 ± 3 µM
SMILES: O=C(Nc1cccnc1)N1Cc2cccc(c2)CN(S(=O)(=O)C(F)(F)F)CC/C=C/C[C@@H]1CO [Compound 5]
viability at 10 µM [1, 8]: 82%
BioSim [%] (biosimilarity) to IPP/CNRS-A017 ([1]; compound Conc 10 μM): 87%
BioSim [%] (biosimilarity) to brequinar ([1]; compound Conc 10 μM): 84%
CPA fingerprint similarity to the iron chelator deferoxamine [5]: 80%
cells in S phase (analysis of CPA fingerprints) [5]: accumulation of cells in S phase; also recorded: increase in the percentage of cells in S phase

SMILES: CC(=O)Oc1c(C[C@]23CCOC4(CCCCC4)C2=Nc2ccc(Br)cc23)occc1=O [Compound 7]
viability at 10 µM [1, 8]: 93%
influence on complex III activity [6]: did not impair
rescue of cell growth by orotate (OA) [2, 9]: relieved
influence on in vitro DHODH activity, in words ([4]; 10 μM compound): inactive; also recorded: did not have any influence

SMILES: Cc1c(Oc2ccc(F)cc2)c(OC(C)C)nn1-c1ccc(C2CC2)cn1 [Compound 1]
Ind [%] (induction) ([1]; Conc 5 μM, 20 h): 10%
viability at 5 µM ([1]; Homo sapiens, U2OS, Conc 5 μM, 20 h, read-out: Cell count [%]): 105%
biosimilarity (BioSim) to IPP/CNRS-A017 [1]: not biosimilar
biosimilarity (BioSim) to brequinar [1]: not biosimilar
BioSim [%] (biosimilarity) to brequinar ([1]; compound Conc 5 μM): 39%

SMILES: NC(=O)c1[nH]nc([C@@H]2O[C@H](CO)[C@@H](O)[C@H]2O)c1O [Pyrazofurin, pyrazofurin]
viability at 10 µM [1, 8]: 97%
biosimilarity (BioSim) to IPP/CNRS-A017 [1]: high biosimilarity
biosimilarity (BioSim) to brequinar [1]: high biosimilarity
rescue of cell growth by uridine [2]: fully rescued
influence on cell growth (cell confluence) [2]: suppressed the growth

influence on in vitro DHODH activity, in words ([4]; 10 μM compound): only moderately inhibited
inhibition at 10 µM ([4]; 10 μM compound): 27 to 44%
SMILES: Brc1ccc2[nH]c3c(c2c1)CCOC31CCCCC1 [Compound 6]
viability at 10 µM [1, 8]: 88%
BioSim [%] (biosimilarity) to IPP/CNRS-A017 ([1]; compound Conc 10 μM): 87%
BioSim [%] (biosimilarity) to brequinar ([1]; compound Conc 10 μM): 84%
rescue of cell growth by orotate (OA) [2, 9]: relieved
CPA fingerprint similarity to the iron chelator deferoxamine [5]: 81%
cells in S phase (analysis of CPA fingerprints) [5]: accumulation of cells in S phase; also recorded: increase in the percentage of cells in S phase
